# Data published in patent US20210275545A1, “METHOD OF TREATING CANCER PREFERABLY CHARACTERIZED BY EXPRESSION OF A FUSION PROTEIN COMPRISING A MEMBER OF THE E-TWENTY-SIX FAMILY BY ADMINISTERING AN AGENT THAT INHIBITS THE SYNTHESIS AND/OR ACTIVITY OF CORTISOL” (Yeda Research and Development Co. Ltd., priority 2018, published 2021).
# Experiments:
# GR and FLI1 [1] = molecular target: T1, GR and FLI1 (Homo sapiens, UniProt P04150); settings: combination of DEX (1 μM) and RU486 (1 μM)
# Description: (§1) (A) The scheme presents the full length Gaussia luciferase protein, along with either the amino-terminal segment (Gluc1), which was fused to an ETS family transcription factor, or the carboxyl terminal segment (Gluc2), which was fused to GR. Amino acid numbers are indicated. cDNAs encoding most members of the ETS family (16 members altogether) were cloned downstream to Gluc1. […] (B) HEK-293T cells (6×10^3) were seeded in 96-well plates. On the next day, cells were transfected with combinations of the Gluc1 plasmid, encoding a fused ETS family member, and the Gluc2 plasmid encoding a fused full-length GR. […] Cells were then lysed and luminescence was determined in biological triplicates. […] (D and E) HEK-293T cells were seeded in 100-mm dishes. Once they reached sub-maximal density (70%), cells were starved overnight for serum factors. […] Cell extracts were then processed for co-immunoprecipitation assays, in which the endogenous FLI1 or ERG protein was immunoprecipitated using a specific antibody, and immunoblotting was performed using an antibody against GR. EB, empty beads; C, solvent control. Images shown are representative of three biological replicates.
# (A) HEK-293T cells (6×10^3) were seeded in 96-well plates. On the next day, the cells were transfected with combinations of the Gluc1 plasmid, encoding fused FLI1 or ERG, and the Gluc2 plasmid encoding GR. […] Cells were then lysed and luminescence was determined in each sample. Luminescence of vehicle-treated cells was used for normalization. […] (B) HEK-293T cells were seeded on coverslips in 6-well plates. […] Images were processed using the Zeiss ZEN2011 software. […] Bars, 20 μm.
# Protein-fragment complementation assays (PCA): PCA was performed as previously described.
# GR and FLI1 [2] = molecular target: T1, GR and FLI1; settings: HEK-293T cells, treated for 60 minutes
# Description: as §1
# (§2) Proximity ligation assay (PLA), extraction of cells, co-immunoprecipitation and cell migration/invasion assays: These assays were performed exactly as recently reported.
# GR and EWS-FLI1 [3] = molecular target: T2, GR and EWS-FLI1 (Homo sapiens, UniProt P04150); settings: A673 cells
# Description: Images were processed using the Zeiss ZEN2011 software. […] Bars, 20 μm.
# as §2
# CHLA9 and RD-ES cells [4] = assay: Transwell migration assay of ES cells; type: cell-based; settings: DEX 1 μM, RU486 1 μM, D06 10 μM; 20 hours
# Description: (§3) (A) CHLA9 cells were seeded in 100-mm dishes. Once they reached sub-maximal density, cells were starved overnight for serum factors. […] Cells were then extracted and the lysates were processed for co-immunoprecipitation assays using an antibody against GR followed by immunobloting that used an antibody against EWS. The image shown is representative of 3 biological replicates. Signals were quantified and normalized (see numbers below each lane). EB, empty beads. […] (C-D) CHLA9 cells were seeded on the upper faces of either Transwell migration chambers or Matrigel-coated invasion chambers, and further incubated for 20 hours in full medium. Control siRNAs or siRNAs specific to either GR or EWS-FLI1 were added to cells 24 hours prior to seeding, and both cell migration and invasion were measured 20 hours later. […] Cells that reached the lower faces of the chambers were fixed and stained. Shown are representative images of stained cells. The bar plots show quantification, using ImageJ, of the area covered by cells. *, p≤0.05, **, p≤0.005. Bars, 500 μm. […] The bar plots show quantification, using ImageJ, of the area covered by cells. *, p≤0.05, **, p≤0.005. […]
# (§4) (A) RD-ES cells were seeded in 100-mm dishes. […] Cell migration/invasion was determined 20 hours later.
# CHLA9 and RD-ES cells [5] = assay: Matrigel invasion assay of ES cells; type: cell-based; settings: DEX 1 μM, RU486 1 μM, D06 10 μM; 20 hours
# Description: as §3, §4
# A673 cells = assay: MTT cell viability assay, A673 cells; type: cell-based; settings: FLI1 silenced A673 cells; RU486 10 μM, 48 hours
# RD-ES tumors = assay: Immunoblotting of RD-ES tumor extracts; type: in vivo, SCID mice
# Description: FIGS. 13A-B: A GR antagonist and a cortisol-lowering drug induce markers of cell death in animal models of Ewing's sarcoma. (A) RD-ES tumors presented in FIG. 6A were extracted and analyzed using immunoblotting and the indicated antibodies. Note that tumors from three different mice per group were analyzed. (B) Whole extracts prepared from the tumors presented in FIG. 6D were analyzed using immunoblotting and the indicated antibodies. Note that tumors from three different mice per group were analyzed.
# ES animal model studies: All animal experiments were approved by the Weizmann Institute's Animal Care and Use Committee. RD-ES cells and A673 cells (2.5×10^6) were inoculated subcutaneously in the right legs of female SCID mice (6 weeks old). Tumor growth was monitored once every 3 days using a caliper. […] Mice were euthanized when tumor size reached 800-900 mm^3. For metastasis assays, luciferase-labeled TC-71 cells (10^6) were injected orthotopically into the tibia of female SCID mice. Once the primary tumor reached the allowed size limit, we excised the lungs and examined metastases using luciferase bioluminescence imaging.
# TC-71 cells = assay: Bone-to-lung metastasis of luciferase-labeled TC-71 cells injected into the tibia; type: in vivo, SCID mice; settings: TC-71 in tibia; 1 mg/kg intraperitoneally
# Text: FIGS. 6A-E. A GR antagonist and a cortisol-lowering drug impede growth of human xenograft models of Ewing's sarcoma. (A) RD-ES cells (2×10^6) were implanted subcutaneously in the right flank of SCID mice. […] The means of tumor volumes (+SEM) are shown. […] (B) Shown are representative images of immunofluorescent staining for KI67 in paraffin-embedded sections of tumors from A, using an antibody against KI67. Scale bars, 100 μm. Also shown is the scatter plot depicting quantification of KI67 staining in randomly selected 4 fields of a representative tumor from each group. […] (C and D) A673 cells (2×10^6) were implanted in female SCID mice. […] Each group was daily treated with either vehicle, or Metyrapone (25 mg/kg) and tumorigenic growth was monitored. Actual tumor volumes (±SEM) are presented. Also shown are tumors harvested from each group of animals; **p<0.001. (E) TC-71 cells (10^6) engineered to stably express luciferase were injected into the tibia of female SCID mice (5 weeks old; 7 mice per group). […] The control group was similarly treated with the solvent (0.1% tween 80). When the primary tumor reached 10% of body weight, the lungs were excised and examined for metastasis using luciferase bioluminescence imaging. […] Luminescence was quantified and presented in a bar graph. […] Tumor growth was monitored once every 3 days using a caliper. […]
# [6] = test system: glucocorticoid response element (GRE); settings: DEX and RU486 each at 100 nM, 24 hours
# Description: HEK-293T cells (1.2×10^4) were seeded in 48-well plates. […] In addition, cells were co-transfected with increasing amounts of a GR expression vector (A), a FLI1-encoding vector (B) or with a combination of both a FLI1 vector and a vector encoding GR, either wild type (C) or a mutant receptor (GRdim−, panel D). Luciferase activity was determined, in biological triplicates, 48 hours later and presented in bar plots. Cells that were pre-transfected with the reporter plasmid were used for normalization. *, p≤0.05; ***, p≤0.001. […] This was followed by cell lysis and determination of luciferase activity in biological triplicates.
# Luciferase-reporter assays: Cells were co-transfected with a luciferase plasmid containing the consensus glucocorticoid response element (GRE) along with pGL3-Control (Promega, Madison, Wis.). Luciferase activity was determined using the dual-luciferase reporter assay system (Promega). Firefly luciferase luminescence values were normalized to Renilla luminescence.
# GR and EWS-FLI1 [7] = molecular target: T2, GR and EWS-FLI1; settings: DEX 1 μM, RU486 1 μM, 60 minutes
# Description: as §3, §4
# T2 sequence (P04150 whole entry): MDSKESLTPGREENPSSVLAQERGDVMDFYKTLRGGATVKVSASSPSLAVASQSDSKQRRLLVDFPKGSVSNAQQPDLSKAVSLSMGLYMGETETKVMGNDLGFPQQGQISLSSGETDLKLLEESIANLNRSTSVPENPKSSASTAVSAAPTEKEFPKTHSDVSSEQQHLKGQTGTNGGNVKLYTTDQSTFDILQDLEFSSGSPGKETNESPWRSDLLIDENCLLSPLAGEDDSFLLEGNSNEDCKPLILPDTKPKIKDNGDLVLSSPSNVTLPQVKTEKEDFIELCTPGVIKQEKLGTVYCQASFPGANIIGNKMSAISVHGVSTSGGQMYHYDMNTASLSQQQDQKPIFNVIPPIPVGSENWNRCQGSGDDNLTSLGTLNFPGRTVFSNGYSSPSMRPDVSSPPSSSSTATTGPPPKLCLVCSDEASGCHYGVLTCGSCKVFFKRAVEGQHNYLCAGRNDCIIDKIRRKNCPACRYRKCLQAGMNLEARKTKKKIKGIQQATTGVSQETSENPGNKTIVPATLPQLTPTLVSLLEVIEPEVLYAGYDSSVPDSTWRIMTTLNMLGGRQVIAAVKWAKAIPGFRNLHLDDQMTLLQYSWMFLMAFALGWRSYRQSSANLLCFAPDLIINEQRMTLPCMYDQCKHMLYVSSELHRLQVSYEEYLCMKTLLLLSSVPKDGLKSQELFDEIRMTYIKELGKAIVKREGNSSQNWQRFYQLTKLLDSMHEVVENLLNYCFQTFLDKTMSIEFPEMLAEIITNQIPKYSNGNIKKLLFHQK
# T1 sequence (P04150 whole entry, the tested form may be a part): as the sequence (P04150 whole entry) above
smiles,measurement,setting,value
"CC#C[C@]1(O)CC[C@H]2[C@@H]3CCC4=CC(=O)CCC4=C3[C@@H](c3ccc(N(C)C)cc3)C[C@@]21C [RU486, Mifepristone]",effect on DEX-induced physical interaction between GR and FLI1 (PCA),GR and FLI1 [1],significantly inhibited
same,co-immunoprecipitation of GR and FLI1,GR and FLI1 [2],strongly reduced
same,GR/EWS-FLI1 protein-protein interactions (PLA),GR and EWS-FLI1 [3],blocked
same,cell migration,CHLA9 and RD-ES cells [4],inhibited
same,matrix invasion,CHLA9 and RD-ES cells [5],inhibited
same,fraction of metabolically active cells (MTT) after EWS-FLI1 knockdown,A673 cells,further reduced
same,AKT survival pathway in tumors,RD-ES tumors,inhibited
same,LC3B-I abundance in tumors,RD-ES tumors,increased abundance
same,activation of caspase 3 in tumors,RD-ES tumors,no clear activation
same,larger isoform of BIM in tumors,RD-ES tumors,up-regulation
same,p21 abundance in tumors,RD-ES tumors; three mice per group,increased abundance
same,p27 abundance in tumors,RD-ES tumors; three mice per group,increased abundance
same,bone-to-lung metastasis (lung luminescence),TC-71 cells,lessened lung nodules
same,effect of co-treatment on DEX-induced GRE activity,[6],inhibitory
same,"GR/EWS-FLI1 co-immunoprecipitation, CHLA9 cells",GR and EWS-FLI1 [7]; CHLA9 cells,completely
same,"GR/EWS-FLI1 co-immunoprecipitation, RD-ES cells",GR and EWS-FLI1 [7]; RD-ES cells,partially
